The results in this text go back to patent US10758627B2, “Peptide-polynucleotide complex for polynucleotide transfection” (Washington University, priority 2015, dated 2020).

This data set deals with B16 cells stably expressing GFP-PEST. As to the kind of experiment: Screening for siRNA knockdown: delivery of GFP siRNA for knockdown of GFP in B16 GFP cells. It is filed as cell-based. As to conditions: for Able to transfect?: peptide/GFP siRNA particle. As to the method: Knockdown of B16 cells stably expressing GFP-PEST allowed quick screening for effective siRNA knockdown of GFP expression because the PEST sequence shortens GFP half-life from 26 to 10 hours. Melittin derivatives were chosen based on modifications designed to decrease cytotoxicity as well as improve interactions with oligonucleotides. These peptides were screened for their ability to deliver GFP siRNA for the knockdown of GFP in B16 GFP cells (Table 1, FIG. 1).
The melittin derivatives were formulated by Genscript (Piscataway, N.J.), dissolved at 10 mM in RNAse/DNAse free water (Sigma, St. Louis, Mo.) and stored in 4 μl aliquots at −80° C. before use. Transfection complexes were prepared by diluting the peptide 1:200 in phosphate buffered saline (PBS, Sigma), vortexed for 30 seconds, followed by addition of the appropriate amount of siRNA (stock concentration of 10 μM in 1× siRNA buffer (Thermo)) and incubated for 40 minutes at 37° C. with shaking in an Eppendorf Thermomixer R. Resulting nanoparticles were analyzed for siRNA incorporation by resolution on a 12% polyacrylamide gel followed by ethidium bromide staining. Dynamic light scattering (DLS) and zeta potential measurements were performed on a Zeta Plus particle sizer (Brookhaven Instruments, Newton, Mass.). Serum stability analysis was performed by incubating freshly formed peptide/siRNA nanoparticles in 10 mg/ml Human Serum Albumin (HSA, Sigma) overnight followed by DLS and zeta potential measurements.
B16F10 and RAW264.7 (ATCC, Manassas, Va.) cell lines can be maintained under standard cell culture conditions (37° C. and 5% CO2 in a humidified incubator) in DMEM (Gibco, Carlsbad, Calif.) supplemented with 10% fetal bovine serum (Gibco). B16F10 cells stably expressing GFP can be produced as follows. B16F10 can be transfected (Lipofectamine 2000, Invitrogen) with a fusion of EGFP (pEGFP-N1, Clontech) and the PEST sequence from mouse ornithine decarboxylase (S421-V461) in pEF6V5HisTOPO (Invitrogen). Cells are selected for four rounds with cell sorting by flow cytometry without antibiotic selection. Typically, an aliquot of cells can be maintained in continuous culture for a month without a noticeable change in EGFP expression level. Human umbilical vein endothelial cells (HUVECs) can be purchased from Lifeline Technologies (Frederick, Md.) and cultured in VascuLife Basal Medium (Lifeline Technologies) supplemented with 5 ng/mL EGF, 5 ng/ml bFGF, 15 ng/mL IGF-1, 50 μg/mL ascorbic acid, 1 μg/mL hydrocortisone hem isuccinate, 0.75 U/mL Heparin Sulfate, 10 mM L-glutamine, 2% fetal bovine serum in accordance with manufacturer instructions.
For transfection, cells can be plated in 6 well plates 12 hours before transfection and cultured under standard cell culture conditions. Peptide/siRNA nanoparticles are prepared and incubated with cells for 4 hours in a final volume of 1 mL Optimem I (Gibco) or appropriate media supplemented with 10% FBS. Transfections are scaled accordingly for cells plated in 12 well plates based on cell culture surface area. After transfection, cells are washed twice with PBS and incubated with standard cell culture medium for another 24-72 hours before analysis. Lipofectamine 2000 can be used in accordance with the manufacturer's protocol. Briefly, Lipofectamine 2000 is diluted in Optimem I to a final concentration of 8.4 μg/ml and incubated at room temperature for 15 minutes. siRNA is then added to the diluted lipid and incubated for another 40 minutes before dilution to 1 mL total volume with Optimem I for transfection. Suitable eGFP siRNA can be purchased from Sigma. siGENOME mouse MAPK9 siRNA1, siGENOME mouse STAT3 siRNA2, and siGENOME human STAT3 siRNA2 gene specific siRNAs can be purchased from Dharmacon (Lafayette, Colo.). Scrambled siRNA can be purchased from Qiagen (Valencia, Calif.).

The mark [1] stands for this setting: charge ratio (+/−) 6:1 (peptide/siRNA 28:1 to 62:1 depending on peptide).
Where [2] appears, read: charge ratio (+/−) 12:1 (peptide/siRNA 56:1 to 124:1 depending on peptide).
Where [3] appears, read: charge ratio (+/−) 24:1 (peptide/siRNA 112:1 to 248:1 depending on peptide).
Where [4] appears, read: ratio of peptide:polynucleotide between 50:1 and 200:1.

Consider `CC[C@H](C)[C@H](NC(=O)CN)C(=O)NCC(=O)N[C@@H](C)C(=O)N[C@H](C(=O)N[C@@H](CC(C)C)C(=O)N[C@@H](CCCCN)C(=O)N[C@H](C(=O)N[C@@H](CC(C)C)C(=O)N[C@H](C(=O)N[C@H](C(=O)NCC(=O)N[C@@H](CC(C)C)C(=O)N1CCC[C@H]1C(=O)N[C@@H](C)C(=O)N[C@@H](CC(C)C)C(=O)N[C@H](C(=O)N[C@@H](CO)C(=O)N[C@@H](Cc1c[nH]c2ccccc12)C(=O)N[C@H](C(=O)N[C@@H](CCCCN)C(=O)N[C@@H](CCCNC(=N)N)C(=O)N[C@@H](CCCCN)C(=O)N[C@@H](CCCNC(=N)N)C(=O)N[C@@H](CCC(N)=O)C(=O)N[C@@H](CCC(N)=O)C(N)=O)[C@@H](C)CC)[C@@H](C)CC)[C@@H](C)O)[C@@H](C)O)C(C)C)C(C)C` [Melittin], for which the “toxicity to cells in the tested concentration range” value (B16 GFP cells, concentration range of the screen) is “too toxic”. Also, the “Able to transfect?” value under setting [1] was “No”, the “Able to transfect?” value under setting [2] is recorded as “Toxic” and the “Able to transfect?” value under setting [3] was “Toxic”.
Consider “VLTTGLPALISWIKRKRQHRWRRRR [Peptide 5RWRH]”, for which the “Able to transfect?” value under setting [1] is “Yes”, the “Able to transfect?” value under setting [2] is “No” and the “Able to transfect?” value under setting [3] is listed as “No”. For the same compound, the ability to transfect result is, setting by setting: (ratio of 50:1) “did not work”; (ratio of peptide:polynucleotide less than 50:1) “able to transfect”.
With VLTTGLPALISWIKRKRQQC [Peptide 5C], the “Able to transfect?” value is given as “No” under setting [1], “No” under setting [2] and “No” under setting [3].
In the case of “VLTTGLPALISWIKRKRQQRWRRRR [Peptide 5RWR]”, the “Able to transfect?” value runs as follows: under setting [1], “No”; under setting [2], “No”; under setting [3], “No”.
Regarding VLTTGLPALISWIRRRHRRHC [Peptide 5RHH], the “Able to transfect?” value reads like this: under setting [1], “Yes”; under setting [2], “Yes”; under setting [3], “Yes”. Besides, the GFP knockdown result under setting [4] is listed as “exhibited GFP knockdown”. Moreover, the ability to transfect entry under setting [4] is given as “able to transfect”.
